# Measured values published in PubChem BioAssay AID2060509 (Molecular Pharmacology Branch, DTP, NCI, 2025).
# Tested on: 485176-168-R4-J1-PDC spheroids with HUVEC/MSC, viability
# Experiment: Anticancer human tumor 485176-168-R4-J1-PDC patient-derived pancreatic adenocarcinoma cell line growth inhibition [GQUAD]
# Conditions: for IC50: curve of first compound; for viability, T/C: stronger effect = lower value
# From the text: DNA G-quadruplex Stabilizer Agents in Combinations in Complex Spheroids
# A high-throughput screen of multi-cell type tumor spheroids was designed to identify active combinations of DNA G-quadruplex stabilizer agents and targeted small molecules. Complex spheroids include a stromal component modeled by human endothelial cells (HUVEC) and fibroblasts modeled by human mesenchymal stem cells (MSCs). The concentration ranges selected for each drug and investigational agent were based upon clinically achievable concentrations if the clinical Cmax of the agent was known.
# Compounds. The drugs and investigational agents: pidnarulex (CX-5461; NSC782164), APTO-253 (NSC789042), BRACO-19 (NSC847499), peposertib (NSC802822), ceralasertib (NSC780249), elimusertib (NSC800525), camonsertib (NSC841442), AZD-1390 (NSC803789), olaparib (NSC753686), talazoparib (NSC767125), ART-558 (NSC835418), sotorasib (NSC818433), MRTX-1133 (NSC836407), SN-38 (NSC673596), topotecan (NSC609699), etoposide (NSC141540), doxorubicin (NSC123127), gemcitabine (NSC613327), 5-fluorouracil (NSC19893), paclitaxel (NSC125973), vemurafenib (NSC761431), panobinostat (NSC761190), R-306465 (JNJ-16241199; NSC773264), adavosertib (NSC754352), TP-3654 (NSC805149), carboplatin (NSC241240), KSQ-4279 (NSC840948), and staurosporine (NSC755774) were obtained from the National Cancer Institute (NCI) Developmental Therapeutics Program Chemical Repository (34). The FDA-approved anticancer drug set is available from the NCI Developmental Therapeutics Program. […] The stock solutions were prepared in dimethyl sulfoxide (DMSO, Sigma-Aldrich, St. Louis, MO, cat. D2650) at 800-fold the tested concentration and stored at -70 degrees C prior to their use. All drugs and investigational agents were tested over a range starting from a high concentration at or near the clinical Cmax and decreasing in half-log increments. If the clinical Cmax for an agent had not been determined, the highest concentration tested was 10 microM.
# 2.3 Cell Culture. All cells were maintained in an incubator at 37 degrees C and 5% CO2 with 95% humidity. The PDC lines were cultured according to standard operating procedures established by the NCI PDMR. All PDCs were thawed and cultured in Matrigel-coated flasks prepared with a working solution of 1X Ham's F-12 nutrient mix, without supplementation (Invitrogen, cat. 11765054), 100 U/mL penicillin-streptomycin (Invitrogen, cat. 15140122), and 2.5% Matrigel (Corning Inc., cat. 354248) for the first three passages. The 857933-349-R-J2-PDC line was cultured in 6C/Colon 1B media, which includes advanced DMEM/F-12 (Thermo Fisher Scientific, cat. 12634028), 10 mM HEPES (Thermo Fisher Scientific, cat. 15630080), 1X GlutaMAX supplement (Thermo Fisher Scientific, cat. 35050061), 0.1 mg/mL primocin (InvivoGen, cat. ant-pm-2), 10% defined fetal bovine serum, heat inactivated (HyClone Laboratories Inc., cat. SH30070.03HI), 50% L-WRN conditioned media (ATCC, cat. CRL-3276), 1.25 mM N-Acetyl-L-cysteine (Sigma-Aldrich, cat. A9165), 10 mM nicotinamide (Sigma-Aldrich, cat. N0636), 1X B-27 supplement (Thermo Fisher Scientific, cat. 17504044), 1X N-2 supplement (Thermo Fisher Scientific, cat. 17502048), 10 microM Y-27632 dihydrochloride (Tocris Bioscience, cat. 1254), and 50 ng/mL human EGF recombinant protein (Thermo Fisher Scientific, cat. PHG0311). The 485176-168-R4-J1-PDC line was cultured in Panc media, which includes all 6C/Colon 1B media components plus 100 ng/mL human FGF-10 (Thermo Fisher Scientific, cat. 100-26), 500 nM SB-431542 (Selleckchem, cat. S1067), and gastrin (Tocris, cat. 3006).
# […]
# [1] = second compound 0.0316 µM, first compound 0.0316 µM
# [2] = second compound 0.0316 µM, first compound 0.1 µM
# [3] = second compound 0.0316 µM, first compound 0.316 µM
# [4] = second compound 0.0316 µM, first compound 1 µM
# [5] = second compound 0.0316 µM, first compound 3.16 µM
# [6] = second compound 0.0316 µM, first compound 10 µM
# [7] = second compound 0.1 µM, first compound 0.0316 µM
# [8] = second compound 0.1 µM, first compound 0.1 µM
# [9] = second compound 0.1 µM, first compound 0.316 µM
# [10] = second compound 0.1 µM, first compound 1 µM
# [11] = second compound 0.1 µM, first compound 3.16 µM
# [12] = second compound 0.1 µM, first compound 10 µM
# [13] = second compound 0.316 µM, first compound 0.0316 µM
# [14] = second compound 0.316 µM, first compound 0.1 µM
# [15] = second compound 0.316 µM, first compound 0.316 µM
# [16] = second compound 0.316 µM, first compound 1 µM
# [17] = second compound 0.316 µM, first compound 3.16 µM
# [18] = second compound 0.316 µM, first compound 10 µM
# [19] = second compound 1 µM, first compound 0.0316 µM
# [20] = second compound 1 µM, first compound 0.1 µM
# [21] = second compound 1 µM, first compound 0.316 µM
# [22] = second compound 1 µM, first compound 1 µM
# [23] = second compound 1 µM, first compound 3.16 µM
# [24] = second compound 1 µM, first compound 10 µM
# [25] = second compound 3.16 µM, first compound 0.0316 µM
# [26] = second compound 3.16 µM, first compound 0.1 µM
# [27] = second compound 3.16 µM, first compound 0.316 µM
# [28] = second compound 3.16 µM, first compound 1 µM
# [29] = second compound 3.16 µM, first compound 3.16 µM
# [30] = second compound 3.16 µM, first compound 10 µM
# [31] = second compound 10 µM, first compound 0.0316 µM
# [32] = second compound 10 µM, first compound 0.1 µM
# [33] = second compound 10 µM, first compound 0.316 µM
# [34] = second compound 10 µM, first compound 1 µM
# [35] = second compound 10 µM, first compound 3.16 µM
# [36] = second compound 10 µM, first compound 10 µM
# 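Also: spheroids exposed to compounds for seven days before readout.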
# 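For viability, T/C in this document: percent viability relative to DMSO vehicle control wells as 100%.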
smiles,measurement,setting,value
O=c1[nH]cc(F)c(=O)[nH]1 + Cc1[nH]c2ccc(F)cc2c1-c1nc2c3cccnc3c3ncccc3c2[nH]1,IC50,second compound 0.0316 µM,928 nM
same,IC50,second compound 0.1 µM,967 nM
same,IC50,second compound 0.316 µM,> 10000 nM
same,IC50,second compound 1 µM,842 nM
same,IC50,second compound 3.16 µM,2520 nM
same,IC50,second compound 10 µM,807 nM
same,"viability, T/C",[1],89.8%
same,"viability, T/C",[2],83.4%
same,"viability, T/C",[3],75.1%
same,"viability, T/C",[4],46.7%
same,"viability, T/C",[5],51.4%
same,"viability, T/C",[6],46.6%
same,"viability, T/C",[7],86.7%
same,"viability, T/C",[8],96.3%
same,"viability, T/C",[9],80.9%
same,"viability, T/C",[10],45.9%
same,"viability, T/C",[11],48.8%
same,"viability, T/C",[12],52.5%
same,"viability, T/C",[13],92.7%
same,"viability, T/C",[14],102%
same,"viability, T/C",[15],76.8%
same,"viability, T/C",[16],55.5%
same,"viability, T/C",[17],46.2%
same,"viability, T/C",[18],54.8%
same,"viability, T/C",[19],81.9%
same,"viability, T/C",[20],104%
same,"viability, T/C",[21],68.5%
same,"viability, T/C",[22],49.8%
same,"viability, T/C",[23],43.2%
same,"viability, T/C",[24],47.2%
same,"viability, T/C",[25],93.7%
same,"viability, T/C",[26],86.5%
same,"viability, T/C",[27],69.5%
same,"viability, T/C",[28],65.1%
same,"viability, T/C",[29],39.7%
same,"viability, T/C",[30],47.2%
same,"viability, T/C",[31],94.1%
same,"viability, T/C",[32],80.5%
same,"viability, T/C",[33],60.5%
same,"viability, T/C",[34],46.8%
same,"viability, T/C",[35],41.6%
same,"viability, T/C",[36],48.5%
O=C(c1cc(Cc2n[nH]c(=O)c3ccccc23)ccc1F)N1CCN(C(=O)C2CC2)CC1 + CN(C)c1ccc(Nc2c3ccc(NC(=O)CCN4CCCC4)cc3nc3cc(NC(=O)CCN4CCCC4)ccc23)cc1,IC50,second compound 0.0316 µM,> 10000 nM
same,IC50,second compound 0.1 µM,> 10000 nM
same,IC50,second compound 0.316 µM,> 10000 nM
same,IC50,second compound 1 µM,> 10000 nM
same,IC50,second compound 3.16 µM,> 10000 nM
same,IC50,second compound 10 µM,> 10000 nM
same,"viability, T/C",[1],90.6%
same,"viability, T/C",[2],92.6%
same,"viability, T/C",[3],103%
same,"viability, T/C",[4],103%
same,"viability, T/C",[5],111%
same,"viability, T/C",[6],79.3%
same,"viability, T/C",[7],96.3%
same,"viability, T/C",[8],98.7%
same,"viability, T/C",[9],102%
same,"viability, T/C",[10],91.2%
same,"viability, T/C",[11],86.5%
same,"viability, T/C",[12],72.5%
same,"viability, T/C",[13],84.7%
same,"viability, T/C",[14],90.8%
same,"viability, T/C",[15],91.2%
same,"viability, T/C",[16],95.3%
same,"viability, T/C",[17],105%
same,"viability, T/C",[18],81.5%
same,"viability, T/C",[19],107%
same,"viability, T/C",[20],91.5%
same,"viability, T/C",[21],90%
same,"viability, T/C",[22],86.4%
same,"viability, T/C",[23],89.4%
same,"viability, T/C",[24],73.6%
same,"viability, T/C",[25],96.9%
same,"viability, T/C",[26],93.7%
same,"viability, T/C",[27],89.9%
same,"viability, T/C",[28],90.8%
same,"viability, T/C",[29],95.4%
same,"viability, T/C",[30],68.4%
same,"viability, T/C",[31],94.7%
same,"viability, T/C",[32],89.9%
same,"viability, T/C",[33],77.4%
same,"viability, T/C",[34],85.8%
same,"viability, T/C",[35],84.7%
same,"viability, T/C",[36],59.7%
